Measured values: patent US8791139B2, “Anthranilic diamide derivatives” (Bayer Cropscience AG, priority 2010, dated 2014)
Several values for one entry are separate records, joined by “and”; a condition that tells them apart may be missing. Equal entries are not always repeated. Where two headings read alike, the source gives them in different places. Blank lines part the entries; values can stand above or below the molecule they belong to.

Experiments:
[1] = tested on: caterpillars of the armyworm (Spodoptera frugiperda); assay: Spodoptera frugiperda test (SPODFR spray treatment); assay type: in vivo; settings: 168 h; for pest or weed control at 100 g/ha: read-out: activity (caterpillars killed)
Experimental: After 7 days, the effect in % is determined.

[2] = tested on: larvae of the mustard beetle (Phaedon cochleariae); assay: Phaedon test (PHAECO spray treatment); settings: 168 h; for pest or weed control at 100 g/ha: read-out: activity (beetle larvae killed)
[3] = logP by HPLC on reversed-phase columns (C18), EEC Directive 79/831 Annex V.A8; assay type: physicochemical; settings: for logP: HPLC reversed-phase C18, acidic range pH 2.7
Experimental: The logP values reported in the table above and in the Preparation Examples were determined in accordance with EEC Directive 79/831 Annex V.A8 by HPLC (High Performance Liquid Chromatography) on reversed-phase columns (C18), with the following methods:
The LC-MS determination in the acidic range is carried out at pH 2.7 using the mobile phases 0.1% aqueous formic acid and acetonitrile (contains 0.1% formic acid), linear gradient from 10% acetonitrile to 95% acetonitrile
Calibration was carried out using unbranched alkan-2-ones (having from 3 to 16 carbon atoms) with known logP values (the logP values were determined by the retention times using linear interpolation between two successive alkanones).

[4] = application rate 100 g/ha, after 7 days
[5] = reversed-phase HPLC column (C18), pH 2.7, HPLC reversed-phase C18, acidic range pH 2.7, 0.1% aqueous formic acid/acetonitrile, table of compounds of formula (I), read-out: log P
[6] = Preparation Examples (intermediates)
[7] = reversed-phase HPLC column (C18), pH 2.7, HPLC reversed-phase C18, acidic range pH 2.7, Preparation Examples (intermediates), read-out: logP

Molecule: CNC(=O)c1cc(C#N)cc(C)c1NC(=O)c1cc(CSc2ccc(C(F)(F)F)cn2)nn1-c1ncccc1Cl [No. 1 known WO 2007/144100, reference compound]
- inhibition at 100 g/ha ([1]; 100 g/ha, 7 d, comparison with prior art): 0%
- inhibition at 100 g/ha ([2]; read-out: % Activity, PHAECO): 0%

Molecule: CNC(=O)c1cc(C#N)cc(C)c1NC(=O)c1cc(Oc2ccc(C(F)(F)F)cn2)nn1-c1ncccc1Cl [Example 77]
- pest or weed control at 100 g/ha [1]: 100%
- pest or weed control at 100 g/ha [2]: 100%
- chromatographic logP ([3]; pH 2.7, log P): 2.89

Molecule: Cc1cc(Br)cc(C(=O)NC(C)C)c1NC(=O)c1cc(C(=O)Nc2ccc(C(F)(F)F)cc2)nn1-c1ncccc1Cl [Example 3]
- pest or weed control at 100 g/ha [2]: 100%
- chromatographic logP ([3]; pH 2.7, log P): 4.02

Molecule: CNC(=O)c1cc(C#N)cc(C)c1NC(=O)c1cc(C#Cc2ccc(OC(F)(F)F)cc2)nn1-c1ncccc1Cl [Example 13]
- pest or weed control at 100 g/ha [2]: 100%
- chromatographic logP ([3]; pH 2.7, log P): 3.88

Molecule: Cc1cc(Cl)cc(C(=O)NC(C)C)c1NC(=O)c1cc(CNS(=O)(=O)c2ccc(C(F)(F)F)cc2)nn1-c1ncccc1Cl [Example 46]
- pest or weed control at 100 g/ha [1]: 83%
- chromatographic logP ([3]; pH 2.7, log P): 3.47

Molecule: CNC(=O)c1cc(Cl)cc(C)c1NC(=O)c1cc(N2CCN(Cc3ccc(Cl)nc3)C2=O)nn1-c1ncccc1Cl [Example 28]
- chromatographic logP ([3]; pH 2.7, log P): 2.64

Molecule: CNC(=O)c1cc(C#N)cc(C)c1NC(=O)c1cc(N2CCN(Cc3ccc(Cl)nc3)C2=O)nn1-c1ncccc1Cl [Example 29]
- chromatographic logP ([3]; pH 2.7, log P): 2.31

Molecule: CNC(=O)c1cc(C#N)cc(C)c1NC(=O)c1cc(Nc2cc(C(F)(F)F)ccn2)nn1-c1ncccc1Cl [Example 70]
- chromatographic logP ([3]; pH 2.7, log P): 2.76

Molecule: Cc1cc(Cl)cc(C(=O)NC(C)C)c1NC(=O)c1cc(CNS(=O)(=O)c2ccccc2)nn1-c1ncccc1Cl [Example 44]
- chromatographic logP ([3]; pH 2.7, log P): 2.84

Molecule: CNC(=O)c1cc(Cl)cc(C)c1NC(=O)c1cc(C(=O)Nc2cc(C(F)(F)F)cc(C(F)(F)F)c2)nn1-c1ncccc1Cl [Example 6]
- chromatographic logP ([3]; pH 2.7, log P): 4.16

Molecule: CNC(=O)c1cc(Cl)cc(C)c1NC(=O)c1cc(C2=NOC(c3cc(Cl)cc(Cl)c3)(C(F)(F)F)C2)nn1-c1ncccc1Cl (stereo not drawn) [Example 1]
- pest or weed control at 100 g/ha [1]: 100%
- pest or weed control at 100 g/ha [2]: 83%

Molecule: Cc1cc(C#N)cc(C(=O)NC(C)C)c1NC(=O)c1cc(Nc2cc(C(F)(F)F)cc(C(F)(F)F)c2)nn1-c1ncccc1Cl [Example 73]
- pest or weed control at 100 g/ha [1]: 100%
- pest or weed control at 100 g/ha [2]: 100%

Molecule: Cc1cc(Cl)cc(C(N)=O)c1NC(=O)c1cc(C#Cc2ccc(OC(F)(F)F)cc2)nn1-c1ncccc1Cl [Example 9]
- chromatographic logP ([3]; pH 2.7, log P): 3.94

Molecule: Cc1cc(Cl)cc(C(=O)NC(C)C)c1NC(=O)c1cc(CNS(=O)(=O)c2ccccc2Cl)nn1-c1ncccc1Cl [Example 38]
- chromatographic logP ([3]; pH 2.7, log P): 3.06

Molecule: CNC(=O)c1cc(Cl)cc(C)c1NC(=O)c1cc(C(=O)Nc2ccc(C(F)(F)F)cc2)nn1-c1ncccc1Cl [Example 5]
- chromatographic logP ([3]; pH 2.7, log P): 3.46

Molecule: Cc1cc(C#N)cc(C(=O)NC(C)C)c1NC(=O)c1cc(Nc2ccc(C(F)(F)F)c(C(F)(F)F)c2)nn1-c1ncccc1Cl [Example 72]
- chromatographic logP ([3]; pH 2.7, log P): 3.91

Molecule: Cc1cc(Cl)cc(C(=O)NC(C)C)c1NC(=O)c1cc(C(=O)Nc2ccc(C(F)(F)F)cc2)nn1-c1ncccc1Cl [Example 4]
- pest or weed control at 100 g/ha [1]: 83%
- chromatographic logP ([3]; pH 2.7, log P): 3.96

Further lines, with some results ahead:

- chromatographic logP [3, 5]: 4.05
Molecule: Cc1cc(Cl)cc(C(=O)NC2CC2)c1NC(=O)c1cc(CN(Cc2cc(C(F)(F)F)cc(C(F)(F)F)c2)S(C)(=O)=O)nn1-c1ncccc1Cl [Example 59]
- pest or weed control at 100 g/ha [1, 4]: 100%

- chromatographic logP [3, 5]: 4.37
Molecule: Cc1cc(Cl)cc(C(=O)NC(C)C)c1NC(=O)c1cc(CN(C)S(=O)(=O)Cc2cc(C(F)(F)F)cc(C(F)(F)F)c2)nn1-c1ncccc1Cl [Example 56]
- pest or weed control at 100 g/ha [1, 4]: 100%

- logP [3, 6]: 2.64 and 2.68
Molecule: Methyl 1-(3-chloropyridin-2-yl)-3-{1-hydroxy-2-[5-(trifluoromethyl)-2H-tetrazol-2-yl]ethyl}-1H-pyrazole-5-carboxylate/methyl 1-(3-chloropyridin-2-yl)-3-{1-hydroxy-2-[5-(trifluoromethyl)-1H-tetrazol-1-yl]ethyl}-1H-pyrazole-5-carboxylate [Example No. XII]

- chromatographic logP [3, 5]: 3.62
Molecule: CNC(=O)c1cc(Cl)cc(C)c1NC(=O)c1cc(CNS(=O)(=O)c2cc(C(F)(F)F)cc(C(F)(F)F)c2)nn1-c1ncccc1Cl [Example 36]

- chromatographic logP [3, 5]: 3.91
Molecule: Cc1cc(C#N)cc(C(=O)NC(C)C)c1NC(=O)c1cc(CN(Cc2cc(C(F)(F)F)cc(C(F)(F)F)c2)S(C)(=O)=O)nn1-c1ncccc1Cl [Example 60]

- chromatographic logP [3, 7]: 2.18
Molecule: COC(=O)c1cc([N+](=O)[O-])nn1-c1ncccc1Cl [Example No. XVIII, Methyl 1-(3-chloropyridin-2-yl)-3-nitro-1H-pyrazole-5-carboxylate]

- chromatographic logP [3, 5]: 4.5
Molecule: Cc1cc(Cl)cc(C(=O)NC(C)C)c1NC(=O)c1cc(CN(C)S(=O)(=O)c2cc(C(F)(F)F)cc(C(F)(F)F)c2)nn1-c1ncccc1Cl [Example 55]
- pest or weed control at 100 g/ha [1, 4]: 100%

- chromatographic logP [3, 5]: 4.12
Molecule: Cc1cc(C#N)cc(C(=O)NC(C)C2CC2)c1NC(=O)c1cc(CN(Cc2cc(C(F)(F)F)cc(C(F)(F)F)c2)S(C)(=O)=O)nn1-c1ncccc1Cl (stereo not drawn) [Example 61]

- chromatographic logP [3, 7]: 1.83
Molecule: O=[N+]([O-])c1ccn(-c2ncccc2Cl)n1 [Example No. XVI, 3-Chloro-2-(3-nitro-1H-pyrazol-1-yl)pyridine]

- chromatographic logP [3, 7]: 1.38
Molecule: COC(=O)c1cc(C(=O)O)nn1-c1ncccc1Cl [Example No. VIII-e, 1-(3-chloropyridin-2-yl)-5-(methoxycarbonyl)-1H-pyrazole-3-carboxylic acid]

- chromatographic logP [3, 5]: 4.54
Molecule: Cc1cc(Cl)cc(C(=O)NC(C)C2CC2)c1NC(=O)c1cc(CN(Cc2cc(C(F)(F)F)cc(C(F)(F)F)c2)S(C)(=O)=O)nn1-c1ncccc1Cl (stereo not drawn) [Example 58]

- logP [3, 6]: 3.37 and 3.49
Molecule: Methyl 1-(3-chloropyridin-2-yl)-3-{(E)-2-[5-(trifluoromethyl)-2H-tetrazol-2-yl]vinyl}-1H-pyrazole-5-carboxylate/methyl 1-(3-chloropyridin-2-yl)-3-{(E)-2-[5-(trifluoromethyl)-1H-tetrazol-1-yl]vinyl}-1H-pyrazole-5-carboxylate [Example No. XIII]

- logP [3, 6]: 2.79 and 2.86
Molecule: 1-(3-Chloropyridin-2-yl)-3-{(E)-2-[5-(trifluoromethyl)-2H-tetrazol-2-yl]vinyl}-1H-pyrazole-5-carboxylic acid/1-(3-chloropyridin-2-yl)-3-{(E)-2-[5-(trifluoromethyl)-1H-tetrazol-1-yl]vinyl}-1H-pyrazole-5-carboxylic acid [Example No. XIV]

- chromatographic logP [3, 5]: 4.26
Molecule: Cc1cc(Cl)cc(C(=O)NC(C)C)c1NC(=O)c1cc(CN(Cc2cc(C(F)(F)F)cc(C(F)(F)F)c2)S(C)(=O)=O)nn1-c1ncccc1Cl [Example 57]

- logP [3, 6]: 4.46
Molecule: COC(=O)c1cc(C#Cc2ccc(OC(F)(F)F)cc2)nn1-c1ncccc1Cl [Example No. VII, methyl 1-(3-chloropyridin-2-yl)-3-{[4-(trifluoromethoxy)phenyl]ethinyl}-1H-pyrazole-5-carboxylate]

- chromatographic logP [3, 7]: 1.82
Molecule: COC(=O)c1cc(C=O)nn1-c1ncccc1Cl [Example No. VII-e, methyl 1-(3-chloropyridin-2-yl)-3-formyl-1H-pyrazole-5-carboxylate]

- chromatographic logP [3, 5]: 5.29
Molecule: Cc1cc(Cl)cc(C(=O)NC(C)(C)C)c1NC(=O)c1cc(N2CCN(c3cc(C(F)(F)F)cc(C(F)(F)F)c3)C2=O)nn1-c1ncccc1Cl [Example 24]

- chromatographic logP [3, 7]: 2.25
Molecule: O=C(Cn1nnc(C(F)(F)F)n1)c1cc(C(=O)O)n(-c2ncccc2Cl)n1 [Example No. III-4, 1-(3-chloropyridin-2-yl)-3-{[5-(trifluoromethyl)-2H-tetrazol-2-yl]acetyl}-1H-pyrazole-5-carboxylic acid]

- chromatographic logP [3, 5]: 4.62
Molecule: Cc1cc(Cl)cc(C(=O)NC(C)C)c1NC(=O)c1cc(C(=O)Nc2cc(C(F)(F)F)cc(C(F)(F)F)c2)nn1-c1ncccc1Cl [Example 7]

- chromatographic logP [3, 7]: 3.5
Molecule: CCOC(=O)c1cc(C(=O)Cn2nnc(C(F)(F)F)n2)nn1-c1ncccc1Cl [Example No. IX, ethyl 1-(3-chloropyridin-2-yl)-3-{[5-(trifluoromethyl)-2H-tetrazol-2-yl]acetyl}-1H-pyrazole-5-carboxylate]

- chromatographic logP [3, 5]: 3.92
Molecule: Cc1cc(Cl)cc(C(=O)NC(C)C)c1NC(=O)c1cc(CNS(=O)(=O)Cc2ccc(C(F)(F)F)cc2C(F)(F)F)nn1-c1ncccc1Cl [Example 52]
- pest or weed control at 100 g/ha [1, 4]: 83%

- chromatographic logP [3, 7]: 2.31
Molecule: CCOC(=O)c1cc(C(C)=O)nn1-c1ncccc1Cl [Example No. VII-a, ethyl 3-acetyl-1-(3-chloropyridin-2-yl)-1H-pyrazole-5-carboxylate]

- chromatographic logP [3, 7]: 3.33
Molecule: COC(=O)c1cc(C(=O)c2ccc(C(F)(F)F)nc2)nn1-c1ncccc1Cl [Example No. VIII-c, methyl 1-(3-chloropyridin-2-yl)-3-{[6-(trifluoromethyl)pyridin-3-yl]carbonyl}-1H-pyrazole-5-carboxylate]

- chromatographic logP [3, 7]: 2.78
Molecule: O=C(C(=O)c1ccc(Cl)cc1Cl)c1cc(C(=O)O)n(-c2ncccc2Cl)n1 [Example No. III-2, 1-(3-chloropyridin-2-yl)-3-[(2,4-dichlorophenyl)(oxo)acetyl]-1H-pyrazole-5-carboxylic acid]
